Reference: patent publication US4863904A, “Dipeptides as renin inhibitors” (priority 1984, dated 1989)

What was measured:
common marmosets = test: Depressive effect in marmosets (blood pressure of conscious marmosets in a high renin state); format: in vivo; conditions: 100 mg/kg orally, conscious furosemide-treated common marmoset
Procedure: The experiment was carried out by using common marmosets as described in K. G. Hofbauer et al., Clinical and Experimental Hypertension-Theory and Practice, Vol A5, Nos 7 & 8 (1983), pages 1237-1247.
Furosemide was orally administered three times to common marmosets at 15 mg per kilogram per day every other day to create a high renin state. The operation was performed according to the method used by K. G. Hofbauer et al., and blood pressure of conscious marmosets was measured 2 days after the last administration of furosemide.
Male common marmosets weighing 350 g and 280 g were lightly anesthetized by Ketamine hydrochloride (Ketalar®, 10 to 20 mg/kg i.m.), and their femoral artery and vein was exposed. Catheters being filled with a heparin solution was subcutaneously inserted into the femoral vein and the femoral artery from the tail. After suturing of the opened part, the marmosets were placed on a heated mat. After complete recovery from the anesthesia, a dipeptide of the present invention (100 mg/kg) was orally administered through a soft catheter.
The arterial catheter was connected to a pressure transducer and blood pressure was recorded on the polygraph.

human renin = molecular target: T1, human renin (Homo sapiens, UniProt P00797); test: Human renin-sheep renin substrate reaction system in vitro; format: biochemical; conditions: purified human renin, semipurified sheep renin substrate, pH 7.4, 37° C., 15 minutes; angiotensin I by radioimmunoassay; read-out: IC50 (molar concentration)
T1 sequence (P00797 67-406): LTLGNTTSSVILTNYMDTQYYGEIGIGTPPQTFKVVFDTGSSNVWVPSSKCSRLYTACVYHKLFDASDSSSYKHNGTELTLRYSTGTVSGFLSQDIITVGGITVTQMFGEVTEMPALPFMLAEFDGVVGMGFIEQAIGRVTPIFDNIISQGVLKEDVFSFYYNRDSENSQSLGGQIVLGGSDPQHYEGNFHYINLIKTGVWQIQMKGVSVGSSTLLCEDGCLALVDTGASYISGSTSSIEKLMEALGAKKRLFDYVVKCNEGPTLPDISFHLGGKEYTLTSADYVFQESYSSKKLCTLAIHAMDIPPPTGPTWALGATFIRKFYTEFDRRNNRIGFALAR
Procedure: The mixture was incubated for 15 minutes on a water bath at 37° C., and the reaction mixture was allowed to stand for 5 minutes on a water bath at 100° C. to stop the reaction. After cooling, 200 μl of the solution was taken up and the amount of angiotensin I produced by the addition of renin was determined by radioimmunoassay. The inhibitory effect was calculated by the following equation. [formula]
As a control, the same procedure as above was carried out by using 50 μl of dimethyl sulfoxide alone in place of the 50 μl of dimethyl sulfoxide solution containing a dipeptide of the present invention.

**Q.** For CC(C)C[C@@H](C=O)NC(=O)[C@H](Cc1c[nH]cn1)NC(=O)C(CC(=O)NCCc1ccccc1)Cc1cccc2ccccc12 (stereo partly drawn) [N-[2-(1-Naphthylmethyl)-3-(phenethylcarbamoyl)propionyl]-L-histidyl-L-leucinal], which “Blood pressure (mm Hg)” value (common marmosets; 60 min. after administration) is on record?
**A.** 98.2 mm Hg

**Q.** And the “Blood pressure (mm Hg)” value (common marmosets; 120 min. after administration)?
**A.** 88.0 mm Hg

**Q.** And the “Blood pressure (mm Hg)” value (common marmosets; 180 min. after administration)?
**A.** 87.6 mm Hg

**Q.** What about the “Blood pressure (mm Hg)” value (common marmosets; 300 min. after administration) of the same compound?
**A.** 96.5 mm Hg

**Q.** And the “Blood pressure (mm Hg)” value (common marmosets; 420 min. after administration)?
**A.** 101.2 mm Hg

**Q.** Which “Blood pressure (mm Hg)” value (common marmosets; 60 min. after administration) does the source give for CC(C)C[C@@H](CO)NC(=O)[C@H](Cc1c[nH]cn1)NC(=O)C(CC(=O)NCCc1ccccc1)Cc1cccc2ccccc12 (stereo partly drawn) [N-[2-(1-Naphthylmethyl)-3-(phenethylcarbamoyl)propionyl]-L-histidyl-L-leucinol] here?
**A.** 97.7 mm Hg

**Q.** What about the “Blood pressure (mm Hg)” value (common marmosets; 120 min. after administration) of the same compound?
**A.** 89.5 mm Hg

**Q.** And the “Blood pressure (mm Hg)” value (common marmosets; 180 min. after administration)?
**A.** 95.3 mm Hg

**Q.** What about the “Blood pressure (mm Hg)” value (common marmosets; 300 min. after administration) of the same compound?
**A.** 97.4 mm Hg

**Q.** And the “Blood pressure (mm Hg)” value (common marmosets; 420 min. after administration)?
**A.** 99.0 mm Hg

**Q.** Which IC50 (human renin) does the source give for CC(C)C[C@@H](C=O)NC(=O)[C@H](Cc1c[nH]cn1)NC(=O)C(CCCCc1ccc2ccccc2c1)Cc1ccccc1 (stereo partly drawn) [N-[2-Benzyl-6-(2-naphthyl)hexanoyl]-L-histidyl-L-leucinal] here?
**A.** 3400 nM

**Q.** Which IC50 (human renin) does the source give for CC(C)C[C@@H](C=O)NC(=O)[C@H](Cc1c[nH]cn1)NC(=O)C(CCCCCc1ccccc1)Cc1ccccc1 (stereo partly drawn) [N-[2-Benzyl-7-phenylheptanoyl)-L-histidyl-L-leucinal] here?
**A.** 2000 nM

**Q.** CC(C)C[C@@H](C=O)NC(=O)[C@H](Cc1c[nH]cn1)NC(=O)C(=Cc1ccccc1)CC(=O)NCc1cccc2ccccc12 [N-[2-Benzylidene-3-(1-naphthylmethylcarbamoyl)propionyl]-L-histidyl-L-leucinal] was tested. Which IC50 (human renin) did it give?
**A.** 3800 nM

**Q.** For CC(C)C[C@@H](C=O)NC(=O)[C@H](Cc1c[nH]cn1)NC(=O)C(CCc1ccccc1)CCc1ccccc1 [N-[4-Phenyl-2-(2-phenylethyl)butanoyl]-L-histidyl-L-leucinal], which IC50 (human renin) is on record?
**A.** 3500 nM

**Q.** How did the IC50 (human renin) turn out when CC(C)C[C@@H](C=O)NC(=O)[C@H](Cc1c[nH]cn1)NC(=O)C(CCCCc1ccccc1)Cc1cccc2ccccc12 (stereo partly drawn) [N-[(+)-2-(1-Naphthylmethyl)-6-phenylhexanoyl]-L-histidyl-L-leucinal] was run?
**A.** 88 nM

**Q.** For CC(C)C[C@@H](C=O)NC(=O)[C@H](Cc1c[nH]cn1)NC(=O)C(CCCCc1ccccc1)Cc1cccc2ccccc12 (stereo partly drawn) [N-[(-)-2-(1-Naphthylmethyl)-6-phenylhexanoyl]-L-histidyl-L-leucinal], which IC50 (human renin) is on record?
**A.** 460 nM
